What all share (format): in vivo
Test [1] relates to Uncinula necator. The experiment in a line: Grape Powdery Mildew (UNCINE) disease control. Particulars: Erysiphe necator, topical, 24 h, 1 Day Protectant, read-out: Disease Control UNCINE 1 DP. On the procedure: Technical grades of materials were dissolved in acetone, which were then mixed with nine volumes of water containing 110 ppm Triton X-100. The fungicide solutions were applied onto wheat seedlings using an automated booth sprayer to run-off. All sprayed plants were allowed to air dry prior to further handling. All fungicides were evaluated using the aforementioned method for their activity vs. all target diseases. Wheat leaf blotch and brown rust activity were also evaluated using track spray applications, in which case the fungicides were formulated as EC formulations, containing 0.1% Trycol 5941 in the spray solutions. Wheat plants (variety Yuma) were grown from seed in a greenhouse in 50% mineral soil/50% soil-less Metro mix until the first leaf was fully emerged, with 7-10 seedlings per pot. These plants were inoculated with an aqueous spore suspension of Septoria tritici either prior to or after fungicide treatments. After inoculation the plants were kept in 100% relative humidity (one day in a dark dew chamber followed by two to three days in a lighted dew chamber at 20° C.) to permit spores to germinate and infect the leaf. The plants were then transferred to a greenhouse set at 20° C. for disease to develop. When disease symptoms were fully expressed on the 1st leaves of untreated plants, infection levels were assessed on a scale of 0 to 100 percent disease severity. Percent disease control was calculated using the ratio of disease severity on treated plants relative to untreated plants. Grape seedlings (variety Carignane) were grown in soil-less Metro mix, with one plant per pot, and used in the test when approximately one month old. Plants were inoculated 24 hr after fungicide treatment by shaking spores from infected leaves over test plants. Plants were maintained in a greenhouse set at 20° C. until disease was fully developed. Fungicide formulation, application and disease assessment on the sprayed leaves followed the procedures as described in the Example A.

Test [2] relates to Erysiphe cichoracearum. The experiment in a line: Powdery Mildew of Cucumber (ERYSCI) disease control. To be noted: Golovinomyces cichoracearum, topical, 24 h, 1 Day Protectant, read-out: Disease Control ERYSCI 1 DP. The method, then:
Technical grades of materials were dissolved in acetone, which were then mixed with nine volumes of water containing 110 ppm Triton X-100. The fungicide solutions were applied onto wheat seedlings using an automated booth sprayer to run-off. All sprayed plants were allowed to air dry prior to further handling. All fungicides were evaluated using the aforementioned method for their activity vs. all target diseases. Wheat leaf blotch and brown rust activity were also evaluated using track spray applications, in which case the fungicides were formulated as EC formulations, containing 0.1% Trycol 5941 in the spray solutions. Wheat plants (variety Yuma) were grown from seed in a greenhouse in 50% mineral soil/50% soil-less Metro mix until the first leaf was fully emerged, with 7-10 seedlings per pot. These plants were inoculated with an aqueous spore suspension of Septoria tritici either prior to or after fungicide treatments. After inoculation the plants were kept in 100% relative humidity (one day in a dark dew chamber followed by two to three days in a lighted dew chamber at 20° C.) to permit spores to germinate and infect the leaf. The plants were then transferred to a greenhouse set at 20° C. for disease to develop. When disease symptoms were fully expressed on the 1st leaves of untreated plants, infection levels were assessed on a scale of 0 to 100 percent disease severity. Percent disease control was calculated using the ratio of disease severity on treated plants relative to untreated plants. Cucumber seedlings (variety Bush Pickle) were grown in soil-less Metro mix, with one plant per pot, and used in the test when 12 to 14 days old. Plants were inoculated with a spore suspension 24 hr following fungicide treatments. After inoculation the plants remained in the greenhouse set at 20° C. until disease was fully expressed. Fungicide formulation, application and disease assessment on the sprayed leaves followed the procedures as described in the Example A.

Test [3] relates to Alternaria solani. The experiment in a line: Tomato Early Blight (ALTESO) disease control. Particulars: Alternaria solani, topical, 24 h, 1 Day Protectant, read-out: Disease Control ALTESO 1 DP. The method, then: Technical grades of materials were dissolved in acetone, which were then mixed with nine volumes of water containing 110 ppm Triton X-100. The fungicide solutions were applied onto wheat seedlings using an automated booth sprayer to run-off. All sprayed plants were allowed to air dry prior to further handling. All fungicides were evaluated using the aforementioned method for their activity vs. all target diseases. Wheat leaf blotch and brown rust activity were also evaluated using track spray applications, in which case the fungicides were formulated as EC formulations, containing 0.1% Trycol 5941 in the spray solutions. Wheat plants (variety Yuma) were grown from seed in a greenhouse in 50% mineral soil/50% soil-less Metro mix until the first leaf was fully emerged, with 7-10 seedlings per pot. These plants were inoculated with an aqueous spore suspension of Septoria tritici either prior to or after fungicide treatments. After inoculation the plants were kept in 100% relative humidity (one day in a dark dew chamber followed by two to three days in a lighted dew chamber at 20° C.) to permit spores to germinate and infect the leaf. The plants were then transferred to a greenhouse set at 20° C. for disease to develop. When disease symptoms were fully expressed on the 1st leaves of untreated plants, infection levels were assessed on a scale of 0 to 100 percent disease severity. Percent disease control was calculated using the ratio of disease severity on treated plants relative to untreated plants. Tomato plants (variety Outdoor girl) were propagated in soil-less Metro mix, with each pot having one plant, and used when 12 to 14 days old. Test plants were inoculated with an aqueous spore suspension of Alternaria solani 24 hr after fungicide treatments. After inoculation the plants were kept in 100% relative humidity (one day in a dark dew chamber followed by two to three days in a lighted dew chamber at 20° C.) to permit spores to germinate and infect the leaf. The plants were then transferred to a growth room at 22° C. for disease to develop. Fungicide formulation, application and disease assessment on the sprayed leaves followed the procedures as described in the Example A.

In test [4] the test system is Glomerella lagenarium; Anamorph: Colletotrichum lagenarium. In words: Cucumber Anthracnose (COLLLA) disease control. To be noted: Colletotrichum orbiculare, topical, 24 h, 1 Day Protectant, read-out: Disease Control COLLLA 1 DP. The method, then:
Technical grades of materials were dissolved in acetone, which were then mixed with nine volumes of water containing 110 ppm Triton X-100. The fungicide solutions were applied onto wheat seedlings using an automated booth sprayer to run-off. All sprayed plants were allowed to air dry prior to further handling. All fungicides were evaluated using the aforementioned method for their activity vs. all target diseases. Wheat leaf blotch and brown rust activity were also evaluated using track spray applications, in which case the fungicides were formulated as EC formulations, containing 0.1% Trycol 5941 in the spray solutions. Wheat plants (variety Yuma) were grown from seed in a greenhouse in 50% mineral soil/50% soil-less Metro mix until the first leaf was fully emerged, with 7-10 seedlings per pot. These plants were inoculated with an aqueous spore suspension of Septoria tritici either prior to or after fungicide treatments. After inoculation the plants were kept in 100% relative humidity (one day in a dark dew chamber followed by two to three days in a lighted dew chamber at 20° C.) to permit spores to germinate and infect the leaf. The plants were then transferred to a greenhouse set at 20° C. for disease to develop. When disease symptoms were fully expressed on the 1st leaves of untreated plants, infection levels were assessed on a scale of 0 to 100 percent disease severity. Percent disease control was calculated using the ratio of disease severity on treated plants relative to untreated plants. Cucumber seedlings (variety Bush Pickle) were propagated in soil-less Metro mix, with each pot having one plant, and used in the test when 12 to 14 days old. Test plants were inoculated with an aqueous spore suspension of Colletotrichum lagenarium 24 hr after fungicide treatments. After inoculation the plants were kept in a dew room at 22° C. with 100% relative humidity for 48 hr to permit spores to germinate and infect the leaf. The plants were then transferred to a growth room set at 22° C. for disease to develop. Fungicide formulation, application and disease assessment on the sprayed leaves followed the procedures as described in the Example A.

As for `COc1ccnc(C(=O)N[C@H]2CCC[C@H](CCF)[C@@H](OCC(C)C)[C@H](C)OC2=O)c1OCOC(C)=O` [Compound F128, ((2-(((3S,7R,8R,9S)-7-(2-fluoroethyl)-8-isobutoxy-9-methyl-2-oxooxonan-3-yl)carbamoyl)-4-methoxypyridin-3-yl)oxy)methyl acetate], the pest or weed control at 100 ppm in test [1] is 80 to 100%; in test [2], 0 to 80%; in test [3] it was 80 to 100%; in test [4], 80 to 100%.

For the molecule `COCC[C@H]1CCC[C@H](NC(=O)c2nccc(OC)c2OCOC(C)=O)C(=O)O[C@@H](C)[C@@H]1Oc1ccccc1` [Compound F130], the pest or weed control at 100 ppm in test [1] is 0 to 80%; in test [2] it was 0 to 80%; in test [3] it was 0 to 80%; in test [4], 80 to 100%.

Consider `COc1ccnc(C(=O)N[C@H]2CCC[C@H](Cc3ccc(F)cc3F)[C@@H](OC(=O)c3ccco3)[C@H](C)OC2=O)c1OCOC(C)=O` [Compound F144], for which the pest or weed control at 100 ppm was in the range of 0 to 80% in test [1], 0 to 80% in test [2], 80 to 100% in test [3] and 80 to 100% in test [4].

Regarding `COc1ccnc(C(=O)N[C@H]2CCC[C@H](Cc3ccc(F)cc3F)[C@@H](OCC(C)C)[C@H](C)OC2=O)c1OCOC(C)=O` [Compound F145], the pest or weed control at 100 ppm in test [1], in test [2], in test [3] and in test [4] was 80 to 100% in each case.

In the case of `COc1ccnc(C(=O)N[C@H]2CCC[C@H](Cc3ccccc3)[C@@H](OCC3CC3)[C@H](C)OC2=O)c1OCOC(=O)C(C)C` [Compound F152], the pest or weed control at 100 ppm is 0 to 80% in test [1], 80 to 100% in test [2], 80 to 100% in test [3] and 80 to 100% in test [4].

On to `CCCO[C@@H]1[C@@H](CCC(C)C)CCC[C@H](NC(=O)c2nccc(OC)c2OCOC(=O)COCC)C(=O)O[C@H]1C` [Compound F161], for which the pest or weed control at 100 ppm in test [1], in test [2], in test [3] and in test [4] was 80 to 100% each time.

For `CCOCC(=O)OCOc1c(OC)ccnc1C(=O)N[C@H]1CCC[C@H](Cc2ccc(F)cc2)[C@@H](OCC2CC2)[C@H](C)OC1=O` [Compound F164], the pest or weed control at 100 ppm in test [1], in test [2], in test [3] and in test [4] was 80 to 100% each time.

On to `CCCO[C@@H]1[C@@H](Cc2ccc(F)cc2)CCC[C@H](NC(=O)c2nccc(OC)c2OCOC(=O)COCC)C(=O)O[C@H]1C` [Compound F167], for which the pest or weed control at 100 ppm in test [1], in test [2], in test [3] and in test [4] was 80 to 100% throughout.

As for `CCOCC(=O)OCOc1c(OC)ccnc1C(=O)N[C@H]1CCC[C@H](Cc2ccccc2)[C@@H](OCC(C)C)[C@H](C)OC1=O` [Compound F172], the pest or weed control at 100 ppm in test [1] fell in the range of 0 to 80%; in test [2] it was 80 to 100%; in test [3], 80 to 100%; in test [4] it was 80 to 100%.

For `CCOCC(=O)OCOc1c(OC)ccnc1C(=O)N[C@H]1CCC[C@H](Cc2ccccc2)[C@@H](OCC2CC2)[C@H](C)OC1=O` [Compound F173], the pest or weed control at 100 ppm in test [1] was in the range of 0 to 80%; in test [2], 80 to 100%; in test [3], 80 to 100%; in test [4], 80 to 100%.

For the molecule `CCCO[C@@H]1[C@@H](Cc2ccccc2)CCC[C@H](NC(=O)c2nccc(OC)c2OCOC(=O)COCC)C(=O)O[C@H]1C` [Compound F174], the pest or weed control at 100 ppm in test [1], in test [2], in test [3] and in test [4] was 80 to 100% each time.

These data come from US9265253B2, “Use of macrocyclic picolinamides as fungicides” (DOW AGROSCIENCES LLC, priority 2013, dated 2016).
